In series [1] the target is ALK tyrosine kinase receptor (Homo sapiens, UniProt Q9UM73). The experiment in a line: Inhibition of human ALK (1058 to end residues) assessed as residual activity at 0.5 uM using KKKSPGEYVNIEFG as substrate incubated for 40 mins in presence of [gamma-33ATP] by scintillation counting based radiometry assay relative to control.
Series [2] is described as follows: Kinetic solubility of the compound. Type of series: physicochemical. To be noted: read-out: Kinetic_solubility.
For a further series, the species on record is Homo sapiens. Briefly: Inhibition of recombinant […] human B-Raf V599E mutant (416 to end residues) assessed as residual activity at 0.5 uM using myelin basic protein as substrate incubated for 40 mins in presence of [gamma-33ATP] by scintillation counting based radiometry assay relative to control.
Series [3] deals with Mast/stem cell growth factor receptor Kit (Homo sapiens), P10721 [D816V]. The experiment in a line: Inhibition of recombinant human C-Kit D816V mutant (544 to end residues) assessed as residual activity at 0.5 uM poly(Glu, Tyr) 4:1 as substrate incubated 40 mins in presence of [gamma-33ATP] by scintillation counting based radiometry assay relative to control.
Series [4] relates to Epidermal growth factor receptor (Homo sapiens), P00533 [L858R]. The experiment in a line: Inhibition of recombinant human EGFR L858R mutant (696 to end residues) assessed as residual activity at 0.5 uM using poly(Glu, Tyr) 4:1 as substrate at 40 mins in presence of [gamma-33ATP] by scintillation counting based radiometry assay relative to control.
For series [5], the system named is Epidermal growth factor receptor (Homo sapiens), P00533 [L861Q]. The experiment in a line: Inhibition of recombinant human EGFR L861Q mutant (696 to end residues) assessed as residual activity at 0.5 uM using poly(Glu, Tyr) 4:1 as substrate at 40 mins in presence of [gamma-33ATP] by scintillation counting based radiometry assay relative to control.
Series [6] has as its system Epidermal growth factor receptor (Homo sapiens), P00533 [T790M]. The experiment in a line: Inhibition of recombinant human EGFR T790M mutant (696 to end residues) assessed as residual activity at 0.5 uM using poly(Glu, Tyr) 4:1 as substrate at 40 mins in presence of [gamma-33ATP] by scintillation counting based radiometry assay relative to control.
In series [7] the target is Fibroblast growth factor receptor 2 (Homo sapiens) (UniProt P21802). Briefly: Inhibition of recombinant human FGFR2 (456 to 770 residues) assessed as residual activity at 0.5 uM using poly(Glu, Tyr) 4:1 as substrate at 40 mins in presence of [gamma-33ATP] by scintillation counting based radiometry assay relative to control.
The target of series [8] is Fibroblast growth factor receptor 3 (Homo sapiens) (UniProt P22607). The experiment in a line: Inhibition of recombinant human FGFR3 (447 to 761 residues) assessed as residual activity at 0.5 uM using poly(Glu, Tyr) 4:1 as substrate at 40 mins in presence of [gamma-33ATP] by scintillation counting based radiometry assay relative to control.
Fibroblast growth factor receptor 3 (Homo sapiens), sequence (P22607 23-806 limits assumed): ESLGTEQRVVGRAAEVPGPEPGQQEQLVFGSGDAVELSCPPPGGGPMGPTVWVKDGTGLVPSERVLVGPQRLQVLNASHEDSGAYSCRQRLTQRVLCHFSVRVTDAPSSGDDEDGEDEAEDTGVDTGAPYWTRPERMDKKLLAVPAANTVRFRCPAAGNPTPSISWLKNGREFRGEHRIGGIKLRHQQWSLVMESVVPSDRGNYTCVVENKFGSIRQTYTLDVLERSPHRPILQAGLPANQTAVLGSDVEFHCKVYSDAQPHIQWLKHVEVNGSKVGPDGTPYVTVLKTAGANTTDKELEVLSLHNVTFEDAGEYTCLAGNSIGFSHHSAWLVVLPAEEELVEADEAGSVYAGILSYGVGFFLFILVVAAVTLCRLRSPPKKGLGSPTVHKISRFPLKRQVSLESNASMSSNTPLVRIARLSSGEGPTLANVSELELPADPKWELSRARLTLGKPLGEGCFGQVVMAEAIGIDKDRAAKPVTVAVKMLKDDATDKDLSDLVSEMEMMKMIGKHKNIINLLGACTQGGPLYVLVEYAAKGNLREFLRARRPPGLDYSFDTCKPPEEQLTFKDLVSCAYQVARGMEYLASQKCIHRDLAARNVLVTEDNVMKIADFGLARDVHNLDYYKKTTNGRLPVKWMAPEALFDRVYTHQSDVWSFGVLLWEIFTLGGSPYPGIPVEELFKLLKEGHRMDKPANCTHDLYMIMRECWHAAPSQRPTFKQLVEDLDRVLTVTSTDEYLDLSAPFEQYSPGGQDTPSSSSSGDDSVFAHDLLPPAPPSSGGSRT
The target of series [9] is Fibroblast growth factor receptor 4 (Homo sapiens) (UniProt P22455). The experiment in a line: Inhibition of recombinant human FGFR4 (442 to 755 residues) assessed as residual activity at 0.5 uM using poly(Glu, Tyr) 4:1 as substrate at 40 mins in presence of [gamma-33ATP] by scintillation counting based radiometry assay relative to control.
For series [10], the target named is Platelet-derived growth factor receptor alpha (Homo sapiens) (UniProt P16234). Briefly: Inhibition of human PDGFRalpha (550 to end residues) assessed as residual activity at 0.5 uM poly(Glu, Tyr) 4:1 as substrate measured after 40 mins in presence of [gamma33P]ATP by scintillation counting method relative to control.
Platelet-derived growth factor receptor alpha (Homo sapiens), sequence (P16234 whole entry): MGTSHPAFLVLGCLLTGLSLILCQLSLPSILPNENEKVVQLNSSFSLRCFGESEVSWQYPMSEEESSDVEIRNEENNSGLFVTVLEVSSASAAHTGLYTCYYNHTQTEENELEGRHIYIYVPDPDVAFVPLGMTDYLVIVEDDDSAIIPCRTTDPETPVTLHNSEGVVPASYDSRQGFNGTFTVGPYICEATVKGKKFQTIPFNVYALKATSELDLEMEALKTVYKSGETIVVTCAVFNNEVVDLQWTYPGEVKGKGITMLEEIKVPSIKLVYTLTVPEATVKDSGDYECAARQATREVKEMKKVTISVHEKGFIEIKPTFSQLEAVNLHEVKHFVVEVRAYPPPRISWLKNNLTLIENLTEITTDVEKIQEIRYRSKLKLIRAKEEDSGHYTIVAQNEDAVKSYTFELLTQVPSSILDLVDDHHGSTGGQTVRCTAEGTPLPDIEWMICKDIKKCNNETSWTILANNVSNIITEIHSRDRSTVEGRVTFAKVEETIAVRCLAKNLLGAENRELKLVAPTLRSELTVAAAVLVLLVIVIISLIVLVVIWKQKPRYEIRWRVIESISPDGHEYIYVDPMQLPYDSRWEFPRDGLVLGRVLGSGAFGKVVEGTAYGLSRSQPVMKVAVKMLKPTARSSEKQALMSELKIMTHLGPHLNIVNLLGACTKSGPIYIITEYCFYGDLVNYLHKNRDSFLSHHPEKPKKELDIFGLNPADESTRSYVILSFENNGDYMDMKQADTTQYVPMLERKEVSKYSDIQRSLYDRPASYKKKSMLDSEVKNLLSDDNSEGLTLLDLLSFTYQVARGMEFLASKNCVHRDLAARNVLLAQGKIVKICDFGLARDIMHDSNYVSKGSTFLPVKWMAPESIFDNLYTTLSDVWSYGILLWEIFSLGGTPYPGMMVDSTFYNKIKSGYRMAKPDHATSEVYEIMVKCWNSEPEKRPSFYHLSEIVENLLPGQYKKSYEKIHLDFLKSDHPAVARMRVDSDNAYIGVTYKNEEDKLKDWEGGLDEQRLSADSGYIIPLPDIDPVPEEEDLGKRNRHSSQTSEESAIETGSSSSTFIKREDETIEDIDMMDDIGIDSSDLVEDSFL
For series [11], the system named is Platelet-derived growth factor receptor alpha (Homo sapiens), P16234 [V561D]. The experiment in a line: Inhibition of human PDGFRalpha V561D mutant (550 to end residues) assessed as residual activity at 0.5 uM using poly(Glu, Tyr) 4:1 as substrate measured after 40 mins in presence of [gamma33P]ATP by scintillation counting based radiometry assay relative to control.
Platelet-derived growth factor receptor alpha (Homo sapiens), P16234 [V561D], sequence (P16234 whole entry V561D): as the sequence (P16234 whole entry) above, with V561D counted along it

The target in series [12] is Receptor-interacting serine/threonine-protein kinase 2 (Homo sapiens) (UniProt O43353). Briefly: Inhibition of recombinant human RIPK2 (1 to 299 residues) assessed as residual activity at 0.5 uM using myelin basic protein as substrate incubated for 120 mins in presence of [gamma33P]ATP by scintillation counting based radiometry assay relative to control.
In series [13] the target is Tyrosine-protein kinase JAK2 (Homo sapiens) (UniProt O60674). Briefly: Inhibition of human JAK2 (808 to end residues) assessed as residual activity at 0.5 uM using KTFCGTPEYLAPEVRREPRILSEEEQEMFRDFDYIADWC as substrate after 40 mins by [gamma-33ATP] radiometric assay relative to control.
Tyrosine-protein kinase JAK2 (Homo sapiens), sequence (O60674 whole entry): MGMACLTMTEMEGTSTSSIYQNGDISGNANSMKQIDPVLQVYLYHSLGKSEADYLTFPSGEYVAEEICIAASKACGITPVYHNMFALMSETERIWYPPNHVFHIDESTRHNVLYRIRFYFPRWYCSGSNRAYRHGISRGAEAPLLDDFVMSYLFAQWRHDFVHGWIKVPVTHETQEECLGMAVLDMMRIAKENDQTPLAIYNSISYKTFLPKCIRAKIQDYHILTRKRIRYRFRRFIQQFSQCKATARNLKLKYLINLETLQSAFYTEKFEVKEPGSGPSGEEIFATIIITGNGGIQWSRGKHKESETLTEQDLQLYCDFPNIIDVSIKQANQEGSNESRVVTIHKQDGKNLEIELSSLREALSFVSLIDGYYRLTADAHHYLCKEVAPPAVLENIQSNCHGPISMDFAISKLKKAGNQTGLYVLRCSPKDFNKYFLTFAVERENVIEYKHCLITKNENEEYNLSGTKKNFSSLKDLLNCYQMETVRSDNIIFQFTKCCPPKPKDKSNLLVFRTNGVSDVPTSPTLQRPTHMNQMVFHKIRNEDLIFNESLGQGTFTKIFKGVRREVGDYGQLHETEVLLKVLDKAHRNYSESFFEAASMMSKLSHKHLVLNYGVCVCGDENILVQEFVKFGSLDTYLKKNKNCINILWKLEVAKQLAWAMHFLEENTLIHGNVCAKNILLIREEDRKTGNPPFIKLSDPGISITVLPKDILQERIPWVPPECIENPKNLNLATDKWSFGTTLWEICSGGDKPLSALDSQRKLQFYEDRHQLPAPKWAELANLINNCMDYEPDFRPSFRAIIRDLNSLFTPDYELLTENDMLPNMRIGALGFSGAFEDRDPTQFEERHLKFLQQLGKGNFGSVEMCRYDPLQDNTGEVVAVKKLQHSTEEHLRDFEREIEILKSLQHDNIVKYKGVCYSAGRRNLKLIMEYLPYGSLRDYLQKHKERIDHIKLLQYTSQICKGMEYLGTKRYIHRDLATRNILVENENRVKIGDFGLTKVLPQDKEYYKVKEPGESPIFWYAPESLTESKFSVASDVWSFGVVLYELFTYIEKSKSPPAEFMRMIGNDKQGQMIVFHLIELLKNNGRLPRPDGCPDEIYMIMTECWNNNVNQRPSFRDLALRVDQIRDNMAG
Series [14] in a line: Clearance in female Sprague-Dawley rat at 2 mg/kg, iv measured up to 24 hrs by LC/MS/MS analysis. Type of series: ADME, organism-based. To be noted: in vivo.
Series [15] is described as follows: Cmax in female Sprague-Dawley rat at 10 mg/kg, po measured up to 24 hrs by LC-MS/MS analysis. Type of series: ADME, organism-based. Also on record: route oral, dose 10 mg/kg, time <=24. To be noted: in vivo.
In a further series the test system is BaF3. Briefly: Antitumor activity against mouse BaF3 cells transfected with LMNA-NTRK1 xenografted in mouse assessed as tumor growth inhibition at 5 to 20 mg/kg, po administered once daily for 21 days and measured twice weekly. To be noted: dose 5-20 mg/kg, time 21.0 day.
In the next series the test system is KM12. The experiment in a line: Antiproliferative activity against TrK fused human KM12 cells. It counts as functional, cell-based.
Series [16] can be described thus: Volume of distribution in Sprague-Dawley rat at 3 mg/kg measured up to 24 hrs by LC-MS/MS analysis. It counts as ADME, organism-based. To be noted: in vivo.
Series [17] is described as follows: AUC (0 to t) in Sprague-Dawley rat at 3 mg/kg measured up to 24 hrs by LC-MS/MS analysis. Set-up: dose 3 mg/kg, time <=24. Type of series: ADME, organism-based. To be noted: in vivo.
Series [18] can be described thus: Toxicity in […] xenografted with mouse BaF3 cells transfected with ETV6-NTRK3 assessed as death at 100 mg/kg, po administered once daily for 21 days and measured twice weekly. To be noted: in vivo, 504 h, time 21 day. It counts as organism-based.
Series [19] can be described thus: Toxicity in […] xenografted with mouse BaF3 cells transfected with ETV6-NTRK3-G623R mutant assessed as death at 100 mg/kg, po administered once daily for 21 days and measured twice weekly. Type of series: organism-based. To be noted: in vivo, 504 h, time 21 day.
Series [20] in a line: Toxicity in […] xenografted with mouse BaF3 cells transfected with LMNA-NTRK1-G595R mutant assessed as death at 100 mg/kg, po administered once daily for 21 days and measured twice weekly. Type of series: organism-based. To be noted: in vivo, 504 h, time 21 day.
A further series in a line: cells. To be noted: Homo sapiens, MO-91.
The nature of series [21]: Toxicity in mouse xenografted with mouse BaF3 cells transfected with LMNA-NTRK1 assessed as death at 100 mg/kg, po administered once daily for 21 days and measured twice weekly. To be noted: in vivo, 504 h.
Series [22] is described as follows: Toxicity in mouse xenografted with mouse BaF3 cells transfected with ETV6-NTRK3 assessed as weight loss at 100 mg/kg, po administered once daily for 21 days and measured twice weekly. To be noted: in vivo, 504 h.

In brackets after ≈: the same amount, converted by molar mass. Activity calls are given as the source filed them. The calls are words filed in the database; no cut-off is given here.

ALK tyrosine kinase receptor, sequence (Q9UM73 19-1620 limits assumed): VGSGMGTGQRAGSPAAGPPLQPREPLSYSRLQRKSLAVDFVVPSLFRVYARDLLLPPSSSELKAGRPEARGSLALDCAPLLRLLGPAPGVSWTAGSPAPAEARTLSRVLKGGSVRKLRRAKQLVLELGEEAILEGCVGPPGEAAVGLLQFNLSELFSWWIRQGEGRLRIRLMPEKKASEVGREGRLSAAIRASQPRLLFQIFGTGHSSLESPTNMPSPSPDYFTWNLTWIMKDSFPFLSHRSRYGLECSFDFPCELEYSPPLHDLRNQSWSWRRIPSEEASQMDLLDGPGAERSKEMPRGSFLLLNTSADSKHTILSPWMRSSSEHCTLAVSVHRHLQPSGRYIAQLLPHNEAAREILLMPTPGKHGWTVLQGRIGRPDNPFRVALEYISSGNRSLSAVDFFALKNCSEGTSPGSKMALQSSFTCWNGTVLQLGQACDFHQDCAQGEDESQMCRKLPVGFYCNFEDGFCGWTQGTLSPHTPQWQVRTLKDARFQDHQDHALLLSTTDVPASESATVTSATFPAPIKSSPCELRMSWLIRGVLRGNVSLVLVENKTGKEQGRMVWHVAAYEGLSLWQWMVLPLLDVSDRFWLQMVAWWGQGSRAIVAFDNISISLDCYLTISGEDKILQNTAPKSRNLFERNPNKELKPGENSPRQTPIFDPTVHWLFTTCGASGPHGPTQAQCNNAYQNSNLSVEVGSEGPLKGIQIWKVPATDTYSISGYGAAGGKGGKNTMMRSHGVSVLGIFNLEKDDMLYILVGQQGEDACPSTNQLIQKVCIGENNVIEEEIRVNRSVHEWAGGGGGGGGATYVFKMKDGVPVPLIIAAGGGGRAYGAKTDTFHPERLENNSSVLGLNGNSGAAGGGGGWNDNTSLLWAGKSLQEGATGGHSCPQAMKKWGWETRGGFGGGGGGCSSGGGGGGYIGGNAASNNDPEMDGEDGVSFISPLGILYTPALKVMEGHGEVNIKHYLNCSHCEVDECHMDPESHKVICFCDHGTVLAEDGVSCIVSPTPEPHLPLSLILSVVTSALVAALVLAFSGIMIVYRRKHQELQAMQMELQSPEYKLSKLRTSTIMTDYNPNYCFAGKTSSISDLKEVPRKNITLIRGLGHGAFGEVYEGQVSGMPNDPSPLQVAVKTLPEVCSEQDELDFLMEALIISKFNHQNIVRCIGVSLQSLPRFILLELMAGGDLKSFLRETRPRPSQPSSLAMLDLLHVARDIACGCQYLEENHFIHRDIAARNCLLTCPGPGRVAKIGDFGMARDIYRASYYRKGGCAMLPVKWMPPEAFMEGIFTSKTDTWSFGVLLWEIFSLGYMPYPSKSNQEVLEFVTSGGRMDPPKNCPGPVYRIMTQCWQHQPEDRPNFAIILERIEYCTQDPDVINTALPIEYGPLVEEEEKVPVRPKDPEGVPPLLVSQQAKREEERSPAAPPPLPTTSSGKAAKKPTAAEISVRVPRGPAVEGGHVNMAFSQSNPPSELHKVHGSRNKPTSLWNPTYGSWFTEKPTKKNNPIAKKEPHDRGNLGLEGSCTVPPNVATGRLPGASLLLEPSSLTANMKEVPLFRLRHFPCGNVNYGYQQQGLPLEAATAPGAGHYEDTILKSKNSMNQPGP

In general, clearance refers to a measure of how efficiently the substance is removed, as volume per time. High values mean a high capacity for elimination, low ones a low capacity for elimination. Broadly, the Cmax is the highest concentration seen after dosing. On to `O=C1NC2(CC2)COc2ncc(F)cc2[C@H]2COCCN2c2ccn3ncc1c3n2`, for which the Activity in series [1] amounted to 26%; in the series listed under Homo sapiens, 87%; in series [3], 101%; in series [4] it was 91%; in [5], 95%; in series [6], 105%. The Activity was found to be 93% in series [7]; 96% in [8]; 114% in series [9]; 106% in [10]; 103% in series [11]; 93% in [12]. Moreover, in [13], the Activity was determined as 44%. Also, in series [2], the solubility kinetic was found to be 193 µM (≈ 79.2 µg/mL). For the same compound, the clearance in series [14] was 8.19 mL/min/kg. This compound returned a Cmax in series [15] of 6.63 µM. In addition, the result in the series on BaF3 was Active.
As usually defined, the IC50 is the midpoint of a concentration-inhibition curve. Higher therefore signals a need for much substance. Usually Vd stands for the apparent volume that relates the amount in the body to the concentration in plasma or blood. A lower Vd goes with little distribution into tissue. As a reminder, the AUC(0-t) is exposure summed from dosing to a finite time, without extrapolation to infinity. A higher AUC(0-t) goes with high exposure. As for `C[C@@H]1CCc2ncc(F)cc2[C@H]2CCCN2c2ccn3ncc(c3n2)C(=O)N1` [SELITRECTINIB], the IC50 in the series with KM12 and in the series “cells” was at most 5 nM throughout. The compound also displayed a distribution volume (Vd) in [16] of 0.5 L/kg. This compound also gave an AUC(0-t) at 24 h in [17] of 11.1 µM·h. Besides, the Activity result in series [18], in [19], in [20], in series [21] and in series [22] was “Toxic” in each case.
